Source: PubChem BioAssay (NCI)
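These data come from cells grown in 96-well plates and exposed to compound for 48 hours at five concentrations. TGI denotes the concentration required for complete inhibition of growth.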

Tests used:
Assay in all cases: inhibition of tumour cell growth, NCI panel, 48 h
A549 NSCLC = system: A549 NSCLC
NCI-H226 lung = system: NCI-H226 lung
SK-MEL-5 melanoma = system: SK-MEL-5 melanoma
MDA-N = system: MDA-N
UACC-62 melanoma = system: UACC-62 melanoma
MALME-3M melanoma = system: MALME-3M melanoma
U251 CNS = system: U251 CNS
MOLT-4 leukemia = system: MOLT-4 leukemia
OVCAR-5 ovarian = system: OVCAR-5 ovarian
HOP-92 NSCLC = system: HOP-92 NSCLC

SMILES: C=C1CC(COc2ccc3c(C)c(C)c(=O)oc3c2C)(c2ccccc2)OC1=O (stereo not given)
- TGI (A549 NSCLC): 26.7 µM
- TGI (NCI-H226 lung): 6.73 µM
- TGI (SK-MEL-5 melanoma): 3.23 µM
- TGI (MDA-N): 4.4 µM
- TGI (UACC-62 melanoma): 3.42 µM
- TGI (MALME-3M melanoma): 4.16 µM
- TGI (U251 CNS): 20.3 µM
- TGI (MOLT-4 leukemia): 3.05 µM
- TGI (OVCAR-5 ovarian): 25.1 µM
- TGI (HOP-92 NSCLC): 2.96 µM

SMILES: CN(C)CCCNc1cc(O)c2c(c1O)C(=O)c1ccccc1C2=O
- TGI (A549 NSCLC): 23.9 µM
- TGI (NCI-H226 lung): 35.2 µM
- TGI (SK-MEL-5 melanoma): 26.5 µM
- TGI (MDA-N): 27.4 µM
- TGI (UACC-62 melanoma): 35.3 µM
- TGI (MALME-3M melanoma): 50.2 µM
- TGI (U251 CNS): 27.2 µM
- TGI (OVCAR-5 ovarian): 33.7 µM
- TGI (HOP-92 NSCLC): 29.6 µM

SMILES: Clc1ccc(OCc2nnc(COc3ccc(OCc4nnc(COc5ccc(Cl)cc5Cl)o4)c(Cl)c3)o2)c(Cl)c1
- TGI (A549 NSCLC): > 100 µM
- TGI (NCI-H226 lung): > 100 µM
- TGI (SK-MEL-5 melanoma): > 100 µM
- TGI (MDA-N): > 100 µM
- TGI (UACC-62 melanoma): > 100 µM
- TGI (MALME-3M melanoma): > 100 µM
- TGI (U251 CNS): 54.7 µM
- TGI (OVCAR-5 ovarian): > 100 µM
- TGI (HOP-92 NSCLC): 33.5 µM

SMILES: CC1(C)N=C(N)N=C(N)N1c1cccc(OCc2cccc(N)c2)c1
- TGI (A549 NSCLC): > 100 µM
- TGI (NCI-H226 lung): > 100 µM
- TGI (SK-MEL-5 melanoma): > 100 µM
- TGI (MDA-N): > 100 µM
- TGI (UACC-62 melanoma): > 100 µM
- TGI (MALME-3M melanoma): > 100 µM
- TGI (U251 CNS): > 100 µM
- TGI (MOLT-4 leukemia): > 100 µM
- TGI (OVCAR-5 ovarian): > 100 µM
- TGI (HOP-92 NSCLC): > 100 µM

SMILES: NC(Cc1[nH]nc2ccccc12)C(=O)O (stereo not given)
- TGI (A549 NSCLC): > 100 µM
- TGI (NCI-H226 lung): > 100 µM
- TGI (SK-MEL-5 melanoma): > 100 µM
- TGI (UACC-62 melanoma): > 100 µM
- TGI (MALME-3M melanoma): > 100 µM
- TGI (U251 CNS): > 100 µM
- TGI (MOLT-4 leukemia): > 100 µM
- TGI (OVCAR-5 ovarian): > 100 µM
- TGI (HOP-92 NSCLC): > 100 µM

SMILES: C#CCOCC12C=CC(O1)C1COC(=O)C12 (stereo not given)
- TGI (A549 NSCLC): > 100 µM
- TGI (NCI-H226 lung): > 100 µM
- TGI (SK-MEL-5 melanoma): > 100 µM
- TGI (MDA-N): > 100 µM
- TGI (UACC-62 melanoma): > 100 µM
- TGI (MALME-3M melanoma): > 100 µM
- TGI (U251 CNS): > 100 µM
- TGI (MOLT-4 leukemia): > 100 µM
- TGI (OVCAR-5 ovarian): > 100 µM
- TGI (HOP-92 NSCLC): > 100 µM

SMILES: O=c1c(-c2ccccc2)c(SCCN2CCCCCC2)n(-c2ccccc2)c(=S)n1-c1ccccc1
- TGI (NCI-H226 lung): > 100 µM
- TGI (SK-MEL-5 melanoma): > 100 µM
- TGI (UACC-62 melanoma): > 100 µM
- TGI (MALME-3M melanoma): 49.3 µM
- TGI (MOLT-4 leukemia): 57.5 µM
- TGI (OVCAR-5 ovarian): 44.3 µM
- TGI (HOP-92 NSCLC): > 100 µM

SMILES: CCCO/N=[N+](\[O-])N(CC)CC
- TGI (A549 NSCLC): > 100 µM
- TGI (NCI-H226 lung): > 100 µM
- TGI (SK-MEL-5 melanoma): > 100 µM
- TGI (UACC-62 melanoma): > 100 µM
- TGI (U251 CNS): > 100 µM
- TGI (MOLT-4 leukemia): > 100 µM
- TGI (OVCAR-5 ovarian): > 100 µM
- TGI (HOP-92 NSCLC): > 100 µM

SMILES: CC(=O)C1(O)CCC2(O)C3(O)CC=C4CC(O)CCC4(C)C3CC(OC(=O)c3ccc(O)cc3)C12C (stereo not given)
- TGI (A549 NSCLC): > 100 µM
- TGI (NCI-H226 lung): > 100 µM
- TGI (SK-MEL-5 melanoma): > 100 µM
- TGI (MDA-N): > 100 µM
- TGI (UACC-62 melanoma): > 100 µM
- TGI (U251 CNS): > 100 µM
- TGI (MOLT-4 leukemia): > 100 µM
- TGI (OVCAR-5 ovarian): > 100 µM
- TGI (HOP-92 NSCLC): > 100 µM

SMILES: Cc1cn(CCCCCOC(=O)NC(CCCNC(N)=O)C(=O)O)c(=O)[nH]c1=O (stereo not given)
- TGI (A549 NSCLC): > 100 µM
- TGI (NCI-H226 lung): > 100 µM
- TGI (MDA-N): > 100 µM
- TGI (UACC-62 melanoma): > 100 µM
- TGI (U251 CNS): > 100 µM
- TGI (MOLT-4 leukemia): > 100 µM
- TGI (OVCAR-5 ovarian): > 100 µM
- TGI (HOP-92 NSCLC): > 100 µM

SMILES: CCC(=O)Nc1ccc(NS(=O)(=O)c2ccc(Cl)cc2)cc1
- TGI (A549 NSCLC): > 100 µM
- TGI (NCI-H226 lung): > 100 µM
- TGI (SK-MEL-5 melanoma): > 100 µM
- TGI (MDA-N): > 100 µM
- TGI (UACC-62 melanoma): > 100 µM
- TGI (MALME-3M melanoma): > 100 µM
- TGI (MOLT-4 leukemia): > 100 µM
- TGI (OVCAR-5 ovarian): > 100 µM
- TGI (HOP-92 NSCLC): > 100 µM

SMILES: C=C(C)[C@H]1CC(=O)/C(C)=C\CC/C(C)=C/CC[C@@]2(C)O[C@@H]2C1
- TGI (A549 NSCLC): 34.5 µM
- TGI (SK-MEL-5 melanoma): 45.5 µM
- TGI (MDA-N): 94.4 µM
- TGI (UACC-62 melanoma): 26.2 µM
- TGI (MALME-3M melanoma): 88.7 µM
- TGI (U251 CNS): 49.8 µM
- TGI (MOLT-4 leukemia): > 100 µM
- TGI (OVCAR-5 ovarian): 94.8 µM
- TGI (HOP-92 NSCLC): > 100 µM

SMILES: CC(C)=CCC12Cc3ccc(O)cc3C(C(C)CN1)C2C (stereo not given)
- TGI (A549 NSCLC): > 100 µM
- TGI (NCI-H226 lung): > 100 µM
- TGI (UACC-62 melanoma): > 100 µM
- TGI (MALME-3M melanoma): > 100 µM
- TGI (U251 CNS): > 100 µM
- TGI (MOLT-4 leukemia): > 100 µM
- TGI (OVCAR-5 ovarian): > 100 µM
- TGI (HOP-92 NSCLC): > 100 µM

SMILES: CCOc1snc(C(Cl)(Cl)Cl)c1Cl
- TGI (A549 NSCLC): 95.4 µM
- TGI (NCI-H226 lung): 32.5 µM
- TGI (SK-MEL-5 melanoma): 21.1 µM
- TGI (MDA-N): > 100 µM
- TGI (UACC-62 melanoma): > 100 µM
- TGI (MALME-3M melanoma): 80.2 µM
- TGI (U251 CNS): > 100 µM
- TGI (MOLT-4 leukemia): 38 µM
- TGI (OVCAR-5 ovarian): > 100 µM

SMILES: Cc1ccc(C(=O)Cc2nc3c([nH]c2=O)c(C)nn3-c2ccccc2)c(C)c1
- TGI (A549 NSCLC): > 10 µM
- TGI (SK-MEL-5 melanoma): > 10 µM
- TGI (MDA-N): > 10 µM
- TGI (UACC-62 melanoma): > 10 µM
- TGI (MALME-3M melanoma): > 10 µM
- TGI (U251 CNS): > 10 µM
- TGI (MOLT-4 leukemia): > 10 µM
- TGI (HOP-92 NSCLC): > 10 µM

SMILES: CCOC(=O)Cn1nnc2cc(Nc3c(C)[n+]([O-])c4cc(F)c(OCC)cc4[n+]3[O-])ccc21
- TGI (NCI-H226 lung): > 100 µM
- TGI (SK-MEL-5 melanoma): > 100 µM
- TGI (U251 CNS): > 100 µM
- TGI (MOLT-4 leukemia): > 100 µM
- TGI (OVCAR-5 ovarian): > 100 µM
- TGI (HOP-92 NSCLC): 49.5 µM

SMILES: O=C1N/N=C\c2ccc(cc2)OCc2cccc(n2)COc2ccc(cc2)/C=N\NC1=O
- TGI (A549 NSCLC): > 25 µM
- TGI (NCI-H226 lung): > 25 µM
- TGI (MDA-N): > 25 µM
- TGI (UACC-62 melanoma): > 25 µM
- TGI (MALME-3M melanoma): > 25 µM
- TGI (U251 CNS): > 25 µM
- TGI (MOLT-4 leukemia): > 25 µM
- TGI (OVCAR-5 ovarian): > 25 µM
- TGI (HOP-92 NSCLC): > 25 µM

SMILES: CC1CCc2sc3nc4n(c(=O)c3c2C1)CC(C)S4 (stereo not given)
- TGI (A549 NSCLC): 70.5 µM
- TGI (NCI-H226 lung): 63.8 µM
- TGI (SK-MEL-5 melanoma): 34.4 µM
- TGI (MDA-N): 92.8 µM
- TGI (UACC-62 melanoma): 38.7 µM
- TGI (MALME-3M melanoma): 65.8 µM
- TGI (U251 CNS): > 100 µM
- TGI (OVCAR-5 ovarian): 92.7 µM
- TGI (HOP-92 NSCLC): 64.9 µM

SMILES: Cc1cnc2[nH]c(-c3cccc(F)c3)cc(=O)c2c1
- TGI (A549 NSCLC): > 100 µM
- TGI (NCI-H226 lung): 4.43 µM
- TGI (MDA-N): 0.027 µM
- TGI (UACC-62 melanoma): > 100 µM
- TGI (MALME-3M melanoma): > 100 µM
- TGI (U251 CNS): > 100 µM
- TGI (MOLT-4 leukemia): > 100 µM
- TGI (OVCAR-5 ovarian): > 100 µM
- TGI (HOP-92 NSCLC): > 100 µM

SMILES: COc1ccc(C2=C(Cl)C(=O)O/C2=C\c2ccc(OC)c(Br)c2)cc1Cl
- TGI (A549 NSCLC): > 100 µM
- TGI (SK-MEL-5 melanoma): > 100 µM
- TGI (MDA-N): > 100 µM
- TGI (UACC-62 melanoma): 74.9 µM
- TGI (MALME-3M melanoma): > 100 µM
- TGI (U251 CNS): 36.6 µM
- TGI (MOLT-4 leukemia): > 100 µM
- TGI (OVCAR-5 ovarian): > 100 µM
- TGI (HOP-92 NSCLC): 49.9 µM

SMILES: CC(=O)OC1CC2(O)C(CCC3(C)C(c4ccc(=O)oc4)CCC32O)C2(C)C1=CC(O)C1OC12 (stereo not given)
- TGI (A549 NSCLC): 0.0569 µM
- TGI (NCI-H226 lung): 0.643 µM
- TGI (SK-MEL-5 melanoma): 0.0435 µM
- TGI (UACC-62 melanoma): 0.117 µM
- TGI (MALME-3M melanoma): 0.13 µM
- TGI (U251 CNS): 0.281 µM
- TGI (MOLT-4 leukemia): 0.0366 µM
- TGI (OVCAR-5 ovarian): 0.772 µM
- TGI (HOP-92 NSCLC): 0.157 µM

SMILES: O=c1ccn(-c2ccccn2)c(=O)n1-c1ccccn1
- TGI (A549 NSCLC): > 100 µM
- TGI (NCI-H226 lung): > 100 µM
- TGI (SK-MEL-5 melanoma): > 100 µM
- TGI (MDA-N): > 100 µM
- TGI (MALME-3M melanoma): > 100 µM
- TGI (U251 CNS): > 100 µM
- TGI (MOLT-4 leukemia): > 100 µM
- TGI (OVCAR-5 ovarian): > 100 µM
- TGI (HOP-92 NSCLC): > 100 µM

SMILES: CN(C)CCNc1c([N+](=O)[O-])sc2ccc(Cl)cc12
- TGI (A549 NSCLC): > 100 µM
- TGI (NCI-H226 lung): 66 µM
- TGI (SK-MEL-5 melanoma): > 100 µM
- TGI (UACC-62 melanoma): 62.7 µM
- TGI (MALME-3M melanoma): > 100 µM
- TGI (U251 CNS): 78.3 µM
- TGI (MOLT-4 leukemia): 7.73 µM
- TGI (OVCAR-5 ovarian): > 100 µM
